Experimental data: US20070243132A1, “Transdermal delivery of pharmaceutical agents” (priority 2005, published 2007)
Structures can show the parent of a compound that is named as a salt.

Tests used:
B16 melanoma line = assay: Topical treatment of B16 melanoma in mice; details: microemulsion 10 mg/ml, 20 microlitre, 2 times per day, after 4 days
[1] = system: Carrageenan-induced inflammation in the rear right footpad; assay: Carrageenan-induced footpad inflammation, foot thickness; format: in vivo, mice; details: for reduction of inflammation (foot thickness): microemulsion 10 mg/ml VB12 analog, 20 microL on shaved belly, 14 days; for reduction of inflammation (foot thickness) vs untreated animals: microemulsion 10 mg/ml, topical on shaved belly, FIG. 8
[2] = microemulsions compared to a hydrogel; cited from earlier work
[3] = Distribution of 125I-labeled proteins after transdermal application in a microemulsion; details: conscious Balb/C mice; for counts in the organs of the intestine: presumed due to grooming
[4] = Weight loss microemulsion in overweight Swiss mice; format: in vivo; details: topical microemulsion 1 mg/ml daily
Experimental: A microemulsion for topical weight loss was prepared according to the methods described in Examples 1 and 7, and included insulin, or insulin-like growth factor 1 (IGF1) or GHRP-6 at a final concentration of 1 mg/ml. A standardised volume of microemulsion was applied daily (TD) to an area of shaved skin on the belly of conscious Swiss strain mice. A standardised volume of each of insulin, or insulin-like growth factor 1 (IGF1) or GHRP-6 at a final concentration of 1 mg/ml in saline was injected sub cutaneously (SC) into the belly region of Swiss strain mice. Animal weights were measured 3 times per week. Following 2 weeks of treatment the mice were euthanased and their tissues removed and weighed. The weight of the animals with time is plotted in FIG. 11. It can be seen that there was a decrease in body weight of animals treated with the topical insulin of up to 15% within 2 weeks (FIG. 11).

Molecule: O=c1[nH]cc(F)c(=O)[nH]1 [5-fluorouracil]
- growth rate of the tumour (B16 melanoma line): reduction in growth rate of the tumour

Molecule: N.N.O=C([O-])C1(C(=O)[O-])CCC1.[Pt+2] [Carboplatin]
- body weight of the animals (B16 melanoma line): no reduction in body weight
- growth rate of the tumour (B16 melanoma line): reduction in growth rate of the tumour

Molecule: N.N.[Cl][Pt][Cl] [Cis-Platinum]
- body weight of the animals (B16 melanoma line): no reduction in body weight
- growth rate of the tumour (B16 melanoma line): reduction in growth rate of the tumour

Molecule: C/C1=C2/[N-][C@H]([C@H](CC(N)=O)[C@@]2(C)CCC(=O)NC[C@@H](C)OP(=O)([O-])O[C@H]2[C@@H](O)[C@@H](n3cnc4cc(C)c(C)cc43)O[C@@H]2CO)[C@]2(C)N=C(/C(C)=C3N=C(/C=C4N=C1[C@@H](CCC(N)=O)C\4(C)C)[C@@H](CCC(N)=O)[C@]\3(C)CC(N)=O)[C@@H](CCC(N)=O)[C@]2(C)CC(N)=O.[CH2-][C@H]1O[C@@H](n2cnc3c(N)ncnc32)[C@H](O)[C@@H]1O.[Co] [adenosyl-cobalamin]
- comparison of reduction in inflammation among the compositions ([1]; C57/BI6 mice, VB12 analog microemulsions, FIG. 7): greatest reduction in inflammation
- reduction of inflammation (foot thickness) ([1]; C57/BI6 mice, FIG. 7): active in reducing inflammation
- reduction of inflammation (foot thickness) vs untreated animals ([1]; C57/BI6 mice): active in reducing inflammation
- level of inflammation in the rear right foot-pad vs untreated animals ([1]; C57/BI6 mice, microemulsions of Example 13, topical on shaved belly, FIG. 6): significantly lower level of inflammation

Molecule: C/C1=C2/[N-][C@H]([C@H](CC(N)=O)[C@@]2(C)CCC(=O)NC[C@H](C)OP(=O)([O-])O[C@H]2[C@@H](O)[C@@H](n3cnc4cc(C)c(C)cc43)O[C@@H]2CO)[C@]2(C)N=C(/C(C)=C3N=C(/C=C4N=C1[C@@H](CCC(N)=O)C\4(C)C)[C@@H](CCC(N)=O)[C@]\3(C)CC(N)=O)[C@@H](CCC(N)=O)[C@]2(C)CC(N)=O.[Co+2] [cobalamin]
- reduction of inflammation (foot thickness) ([1]; C57/BI6 mice, FIG. 7): active in reducing inflammation

Molecule: C/C1=C2/[N-][C@H]([C@H](CC(N)=O)[C@@]2(C)CCC(=O)NC[C@@H](C)OP(=O)([O-])O[C@H]2[C@@H](O)[C@@H](n3cnc4cc(C)c(C)cc43)O[C@@H]2CO)[C@]2(C)N=C(/C(C)=C3N=C(/C=C4N=C1[C@@H](CCC(N)=O)C\4(C)C)[C@@H](CCC(N)=O)[C@]\3(C)CC(N)=O)[C@@H](CCC(N)=O)[C@]2(C)CC(N)=O.[Co+3].[OH-] [hydroxycobalamin, reference compound]
- reduction of inflammation (foot thickness) ([1]; C57/BI6 mice, FIG. 7): active in reducing inflammation

Molecule: CCCNC(C)C(=O)Nc1ccccc1C (stereo not shown) [prilocaine hydrochloride]
- increase of transdermal flux [2]: ~10 times

Molecule: EGF: 125I-labeled Epidermal Growth Factor in a microemulsion
- appearance of 125I in skin, muscle and shaved area ([3]; after 3 hours, FIG. 3): rapid appearance of ^125I in skin, muscle and the shaved area of the skin
- counts in the organs of the intestine ([3]; after 3 hours): appearance of counts in the stomach, SI-1, SI-2, caecum and faeces

Molecule: H-Met-Gln-Glu-Asn-Ser-OH [MLIF-A]
- reduction of inflammation (foot thickness) vs untreated animals ([1]; C57/BI6 mice): active in reducing inflammation

Molecule: H-Met-Gln-Ile-Asn-Ser-OH [MLIF-B]
- reduction of inflammation (foot thickness) vs untreated animals ([1]; C57/BI6 mice): active in reducing inflammation

Molecule: H-Met-Gln-Met-Asn-Ser-OH [MLIF-C]
- reduction of inflammation (foot thickness) vs untreated animals ([1]; C57/BI6 mice): active in reducing inflammation

Molecule: adalimumab
- level of inflammation in the rear right foot-pad vs untreated animals ([1]; microemulsion, TNFRII-Fc 5 mg/ml or adalimumab 4 mg/ml, topical, FIG. 9): significantly lower levels of inflammation

Molecule: cyanocobalamin [reference compound]
- reduction of inflammation (foot thickness) ([1]; C57/BI6 mice, FIG. 7): active in reducing inflammation

Molecule: insulin: insulin in a microemulsion (125I-labeled in Example 5; 1 mg/ml in Example 20)
- change of organ weights compared with other groups ([4]; 2 weeks, FIG. 10): greatest change
- muscle mass ([4]; 2 weeks, FIG. 10): increased
- weight of skin ([4]; 2 weeks, FIG. 10): significantly reduced
- decrease in body weight ([4]; within 2 weeks, FIG. 11): up to 15%
- appearance of 125I in skin, muscle and shaved area ([3]; overnight, FIG. 4): rapid appearance of ^125I in skin, muscle and the shaved area of the skin
- counts in the organs of the intestine ([3]; overnight): appearance of counts in the stomach, SI-1, SI-2, caecum and faeces
